# Experimental data: patent US12084467B2, “Therapeutic compounds for HIV virus infection” (Gilead Sciences, Inc., priority 2021, dated 2024)
# Key:
# [1] = Kinetic solubility analysis (CLND: total chemiluminescent nitrogen determination); settings: 1.0% DMSO, 24-hour incubation at ambient temperature, maximum theoretical concentration 100 μM; for pH 2 solubility: 0.1N HCl; for pH 7 solubility: 1×PBS buffer (pH 7.4)
# [2] = Solubility in simulated intestinal fluids (FaSSIF / FeSSIF); settings: 25 °C, thermodynamic from solid
# [3] = fasted state simulated intestinal fluid (FaSSIF), fassif
# [4] = fed state simulated intestinal fluid (FeSSIF), fessif
SMILES,pH 2 solubility [1],pH 7 solubility [1],"solubility [2, 3] [µg/mL]","solubility [2, 4] [µg/mL]"
"CN1CCN(C(=O)N(c2nn(CC(F)(F)F)c3c(-c4ccc(C#CC(C)(C)S(C)(=O)=O)nc4[C@H](Cc4cc(F)cc(F)c4)NC(=O)Cn4nc(C(F)(F)F)c5c4C(F)(F)[C@@H]4C[C@H]54)ccc(Cl)c23)S(C)(=O)=O)CC1 [Compound 1, N-(4-chloro-7-(2-((S)-1-(2-((3bS,4aR)-5,5-difluoro-3-(trifluoromethyl)-3b,4,4a,5-tetrahydro-1H-cyclopropa[3,4]cyclopenta[1,2-c]pyrazol-1-yl)acetamido)-2-(3,5-difluorophenyl)ethyl)-6-(3-methyl-3-(methylsulfonyl)but-1-yn-1-yl)pyridin-3-yl)-1-(2,2,2-trifluoroethyl)-1H-indazol-3-yl)-4-methyl-N-(methylsulfonyl)piperazine-1-carboxamide]",39 μM,1 μM,–,–
"CC(C)(C#Cc1ccc(-c2ccc(Cl)c3c(N(C(=O)N4CCC(N5CCCCC5)CC4)S(C)(=O)=O)nn(CC(F)(F)F)c23)c([C@H](Cc2cc(F)cc(F)c2)NC(=O)Cn2nc(C(F)(F)F)c3c2C(F)(F)[C@@H]2C[C@H]32)n1)S(C)(=O)=O [Compound 2, N-(4-chloro-7-(2-((S)-1-(2-((3bS,4aR)-5,5-difluoro-3-(trifluoromethyl)-3b,4,4a,5-tetrahydro-1H-cyclopropa[3,4]cyclopenta[1,2-c]pyrazol-1-yl)acetamido)-2-(3,5-difluorophenyl)ethyl)-6-(3-methyl-3-(methylsulfonyl)but-1-yn-1-yl)pyridin-3-yl)-1-(2,2,2-trifluoroethyl)-1H-indazol-3-yl)-N-(methylsulfonyl)-[1,4′-bipiperidine]-1′-carboxamide]",17 μM,1 μM,–,–
"CC(C)(C#Cc1ccc(-c2ccc(Cl)c3c(N(C(=O)C4CNC4)S(C)(=O)=O)nn(CC(F)(F)F)c23)c([C@H](Cc2cc(F)cc(F)c2)NC(=O)Cn2nc(C(F)(F)F)c3c2C(F)(F)[C@@H]2C[C@H]32)n1)S(C)(=O)=O [Compound 5, N-(4-chloro-7-(2-((S)-1-(2-((3bS,4aR)-5,5-difluoro-3-(trifluoromethyl)-3b,4,4a,5-tetrahydro-1H-cyclopropa[3,4]cyclopenta[1,2-c]pyrazol-1-yl)acetamido)-2-(3,5-difluorophenyl)ethyl)-6-(3-methyl-3-(methylsulfonyl)but-1-yn-1-yl)pyridin-3-yl)-1-(2,2,2-trifluoroethyl)-1H-indazol-3-yl)-N-(methylsulfonyl)azetidine-3-carboxamide]",34 μM,1 μM,–,–
"CC(C)(C#Cc1ccc(-c2ccc(Cl)c3c(N(C(=O)C4CN(C(=N)N)C4)S(C)(=O)=O)nn(CC(F)(F)F)c23)c([C@H](Cc2cc(F)cc(F)c2)NC(=O)Cn2nc(C(F)(F)F)c3c2C(F)(F)[C@@H]2C[C@H]32)n1)S(C)(=O)=O [Compound 6, 1-carbamimidoyl-N-(4-chloro-7-(2-((S)-1-(2-((3bS,4aR)-5,5-difluoro-3-(trifluoromethyl)-3b,4,4a,5-tetrahydro-1H-cyclopropa[3,4]cyclopenta[1,2-c]pyrazol-1-yl)acetamido)-2-(3,5-difluorophenyl)ethyl)-6-(3-methyl-3-(methylsulfonyl)but-1-yn-1-yl)pyridin-3-yl)-1-(2,2,2-trifluoroethyl)-1H-indazol-3-yl)-N-(methylsulfonyl)azetidine-3-carboxamide]",15 μM,9 μM,–,–
"CC(C)(C#Cc1ccc(-c2ccc(Cl)c3c(N(C(=O)[C@H]4C[C@H](N)C4)S(C)(=O)=O)nn(CC(F)(F)F)c23)c([C@H](Cc2cc(F)cc(F)c2)NC(=O)Cn2nc(C(F)(F)F)c3c2C(F)(F)[C@@H]2C[C@H]32)n1)S(C)(=O)=O [Compound 7, (trans)-3-amino-N-(4-chloro-7-(2-((S)-1-(2-((3bS,4aR)-5,5-difluoro-3-(trifluoromethyl)-3b,4,4a,5-tetrahydro-1H-cyclopropa[3,4]cyclopenta[1,2-c]pyrazol-1-yl)acetamido)-2-(3,5-difluorophenyl)ethyl)-6-(3-methyl-3-(methylsulfonyl)but-1-yn-1-yl)pyridin-3-yl)-1-(2,2,2-trifluoroethyl)-1H-indazol-3-yl)-N-(methylsulfonyl)cyclobutane-1-carboxamide]",70 μM,1 μM,–,–

# Continued, values first:
pH 2 solubility [1],pH 7 solubility [1],"solubility [2, 3] [µg/mL]","solubility [2, 4] [µg/mL]",SMILES
<1/1 μM,<1/1 μM,–,–,CC(C)(C#Cc1ccc(-c2ccc(Cl)c3c(N(C(=O)[C@H]4C[C@H](NC(=O)C(=O)O)C4)S(C)(=O)=O)nn(CC(F)(F)F)c23)c([C@H](Cc2cc(F)cc(F)c2)NC(=O)Cn2nc(C(F)(F)F)c3c2C(F)(F)[C@@H]2C[C@H]32)n1)S(C)(=O)=O [Compound 8]
9 μM,2 μM,17,83,"CC(C)(C#Cc1ccc(-c2ccc(Cl)c3c(N(C(=O)[C@H]4C[C@H](NC(=N)N)C4)S(C)(=O)=O)nn(CC(F)(F)F)c23)c([C@H](Cc2cc(F)cc(F)c2)NC(=O)Cn2nc(C(F)(F)F)c3c2C(F)(F)[C@@H]2C[C@H]32)n1)S(C)(=O)=O [Compound 9, trans-N-(4-chloro-7-(2-((S)-1-(2-((3bS,4aR)-5,5-difluoro-3-(trifluoromethyl)-3b,4,4a,5-tetrahydro-1H-cyclopropa[3,4]cyclopenta[1,2-c]pyrazol-1-yl)acetamido)-2-(3,5-difluorophenyl)ethyl)-6-(3-methyl-3-(methylsulfonyl)but-1-yn-1-yl)pyridin-3-yl)-1-(2,2,2-trifluoroethyl)-1H-indazol-3-yl)-3-guanidino-N-(methylsulfonyl)cyclobutane-1-carboxamide]"
1 μM,61 μM,401,355,CC(C)(C#Cc1ccc(-c2ccc(Cl)c3c(N(C(=O)[C@@H]4C[C@@H]4COP(=O)(O)O)S(C)(=O)=O)nn(CC(F)(F)F)c23)c([C@H](Cc2cc(F)cc(F)c2)NC(=O)Cn2nc(C(F)(F)F)c3c2C(F)(F)[C@@H]2C[C@H]32)n1)S(C)(=O)=O [Compound 11]
1/1 μM,1/1 μM,253,38,"CC(C)(C#Cc1ccc(-c2ccc(Cl)c3c(N(C(=O)[C@@H]4C[C@H](C(=O)O)C[C@H](C(=O)O)C4)S(C)(=O)=O)nn(CC(F)(F)F)c23)c([C@H](Cc2cc(F)cc(F)c2)NC(=O)Cn2nc(C(F)(F)F)c3c2C(F)(F)[C@@H]2C[C@H]32)n1)S(C)(=O)=O [Compound 15, (1R,3S,5r)-5-((4-chloro-7-(2-((S)-1-(2-((3bS,4aR)-5,5-difluoro-3-(trifluoromethyl)-3b,4,4a,5-tetrahydro-1H-cyclopropa[3,4]cyclopenta[1,2-c]pyrazol-1-yl)acetamido)-2-(3,5-difluorophenyl)ethyl)-6-(3-methyl-3-(methylsulfonyl)but-1-yn-1-yl)pyridin-3-yl)-1-(2,2,2-trifluoroethyl)-1H-indazol-3-yl)(methylsulfonyl)carbamoyl)cyclohexane-1,3-dicarboxylic acid]"
3/3 μM,3/3 μM,–,–,"CC(C)(C#Cc1ccc(-c2ccc(Cl)c3c(N(C(=O)[C@H]4C[C@H]4C(=O)O)S(C)(=O)=O)nn(CC(F)(F)F)c23)c([C@H](Cc2cc(F)cc(F)c2)NC(=O)Cn2nc(C(F)(F)F)c3c2C(F)(F)[C@@H]2C[C@H]32)n1)S(C)(=O)=O [Compound 17, (1R,2S)-2-((4-chloro-7-(2-((S)-1-(2-((3bS,4aR)-5,5-difluoro-3-(trifluoromethyl)-3b,4,4a,5-tetrahydro-1H-cyclopropa[3,4]cyclopenta[1,2-c]pyrazol-1-yl)acetamido)-2-(3,5-difluorophenyl)ethyl)-6-(3-methyl-3-(methylsulfonyl)but-1-yn-1-yl)pyridin-3-yl)-1-(2,2,2-trifluoroethyl)-1H-indazol-3-yl)(methylsulfonyl)carbamoyl)cyclopropane-1-carboxylic acid]"
1 μM,19 μM,–,–,"CC(C)(C#Cc1ccc(-c2ccc(Cl)c3c(N(C(=O)N4CCC(C(=O)O)CC4)S(C)(=O)=O)nn(CC(F)(F)F)c23)c([C@H](Cc2cc(F)cc(F)c2)NC(=O)Cn2nc(C(F)(F)F)c3c2C(F)(F)[C@@H]2C[C@H]32)n1)S(C)(=O)=O [Compound 25, 1-((4-chloro-7-(2-((S)-1-(2-((3bS,4aR)-5,5-difluoro-3-(trifluoromethyl)-3b,4,4a,5-tetrahydro-1H-cyclopropa[3,4]cyclopenta[1,2-c]pyrazol-1-yl)acetamido)-2-(3,5-difluorophenyl)ethyl)-6-(3-methyl-3-(methylsulfonyl)but-1-yn-1-yl)pyridin-3-yl)-1-(2,2,2-trifluoroethyl)-1H-indazol-3-yl)(methylsulfonyl)carbamoyl)piperidine-4-carboxylic acid]"
61 μM,14 μM,–,–,"CC(C)(C#Cc1ccc(-c2ccc(Cl)c3c(N(C(=O)N4CCC[C@H]4CN)S(C)(=O)=O)nn(CC(F)(F)F)c23)c([C@H](Cc2cc(F)cc(F)c2)NC(=O)Cn2nc(C(F)(F)F)c3c2C(F)(F)[C@@H]2C[C@H]32)n1)S(C)(=O)=O [Compound 31, (S)-2-(aminomethyl)-N-(4-chloro-7-(2-((S)-1-(2-((3bS,4aR)-5,5-difluoro-3-(trifluoromethyl)-3b,4,4a,5-tetrahydro-1H-cyclopropa[3,4]cyclopenta[1,2-c]pyrazol-1-yl)acetamido)-2-(3,5-difluorophenyl)ethyl)-6-(3-methyl-3-(methylsulfonyl)but-1-yn-1-yl)pyridin-3-yl)-1-(2,2,2-trifluoroethyl)-1H-indazol-3-yl)-N-(methylsulfonyl)pyrrolidine-1-carboxamide]"
